{"source": "ChEMBL document CHEMBL5465560", "about": "“Selectivity Literature for EUbOPEN Chemogenomic Library” (2024)", "key": {"[1]": {"biological_target": "Mitogen-activated protein kinase kinase kinase 1 (Homo sapiens, UniProt Q13233)", "sequence (Q13233 whole entry)": "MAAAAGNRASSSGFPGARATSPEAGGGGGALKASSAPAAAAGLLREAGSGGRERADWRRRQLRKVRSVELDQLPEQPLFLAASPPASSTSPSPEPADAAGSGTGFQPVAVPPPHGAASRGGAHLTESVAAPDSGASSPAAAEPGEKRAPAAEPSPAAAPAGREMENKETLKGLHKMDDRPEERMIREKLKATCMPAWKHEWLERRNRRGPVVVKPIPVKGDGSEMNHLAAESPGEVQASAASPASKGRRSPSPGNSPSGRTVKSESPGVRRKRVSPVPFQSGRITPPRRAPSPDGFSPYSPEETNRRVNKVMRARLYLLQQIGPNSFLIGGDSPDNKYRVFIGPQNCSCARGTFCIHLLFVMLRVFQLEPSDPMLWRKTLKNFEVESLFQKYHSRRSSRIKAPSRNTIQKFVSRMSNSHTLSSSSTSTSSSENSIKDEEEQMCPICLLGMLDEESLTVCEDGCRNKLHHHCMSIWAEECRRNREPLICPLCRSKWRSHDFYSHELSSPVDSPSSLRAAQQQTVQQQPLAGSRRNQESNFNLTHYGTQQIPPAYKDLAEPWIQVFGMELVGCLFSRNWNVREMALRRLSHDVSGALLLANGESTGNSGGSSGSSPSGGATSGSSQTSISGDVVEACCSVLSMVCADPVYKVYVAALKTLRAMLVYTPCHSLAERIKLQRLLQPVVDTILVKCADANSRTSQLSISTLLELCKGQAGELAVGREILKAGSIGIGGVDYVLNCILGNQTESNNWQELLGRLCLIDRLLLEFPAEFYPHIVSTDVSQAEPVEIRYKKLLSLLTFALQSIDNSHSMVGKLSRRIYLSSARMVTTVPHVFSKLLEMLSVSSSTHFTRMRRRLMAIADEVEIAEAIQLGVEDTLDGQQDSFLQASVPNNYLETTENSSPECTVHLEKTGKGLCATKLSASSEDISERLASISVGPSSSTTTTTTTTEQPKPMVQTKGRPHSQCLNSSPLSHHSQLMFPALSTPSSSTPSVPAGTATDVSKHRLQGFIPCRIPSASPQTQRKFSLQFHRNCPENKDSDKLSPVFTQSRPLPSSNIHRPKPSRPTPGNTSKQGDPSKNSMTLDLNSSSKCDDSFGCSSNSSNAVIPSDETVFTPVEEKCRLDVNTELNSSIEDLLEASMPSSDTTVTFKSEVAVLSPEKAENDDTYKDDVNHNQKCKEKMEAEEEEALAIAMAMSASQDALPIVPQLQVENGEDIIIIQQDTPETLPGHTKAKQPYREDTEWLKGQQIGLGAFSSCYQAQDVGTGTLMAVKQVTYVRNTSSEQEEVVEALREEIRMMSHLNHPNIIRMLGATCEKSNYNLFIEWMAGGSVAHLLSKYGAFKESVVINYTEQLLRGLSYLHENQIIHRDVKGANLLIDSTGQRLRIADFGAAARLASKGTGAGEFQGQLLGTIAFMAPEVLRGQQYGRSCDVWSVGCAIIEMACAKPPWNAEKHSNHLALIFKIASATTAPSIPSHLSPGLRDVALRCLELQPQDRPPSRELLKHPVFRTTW", "assay": "Selectivity interaction (KinomeScan (DiscoverX)) EUB0001049a MAP3K1", "details": "at 1 µM"}, "[2]": {"biological_target": "T1, Serine/threonine-protein kinase RIO3 (Homo sapiens) (UniProt O14730)", "T1 sequence (whole entry)": "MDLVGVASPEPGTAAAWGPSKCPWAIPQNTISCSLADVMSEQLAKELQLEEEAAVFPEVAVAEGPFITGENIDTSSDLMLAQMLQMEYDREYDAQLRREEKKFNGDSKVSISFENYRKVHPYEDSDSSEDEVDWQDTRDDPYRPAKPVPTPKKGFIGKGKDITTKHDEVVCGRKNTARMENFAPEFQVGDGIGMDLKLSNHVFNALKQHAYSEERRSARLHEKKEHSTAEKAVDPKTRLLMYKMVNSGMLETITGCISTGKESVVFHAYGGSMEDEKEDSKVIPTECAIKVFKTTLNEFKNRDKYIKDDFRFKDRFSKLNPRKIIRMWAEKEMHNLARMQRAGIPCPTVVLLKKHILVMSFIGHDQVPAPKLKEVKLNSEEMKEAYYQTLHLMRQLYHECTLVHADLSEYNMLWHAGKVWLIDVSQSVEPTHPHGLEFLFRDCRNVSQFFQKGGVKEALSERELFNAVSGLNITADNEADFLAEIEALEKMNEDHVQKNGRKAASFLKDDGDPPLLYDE", "assay": "Selectivity interaction (KinomeScan (DiscoverX)) EUB0001079a RIOK3", "details": "at 1 µM"}, "[3]": {"biological_target": "T2, Serine/threonine-protein kinase ULK3 (Homo sapiens) (UniProt Q6PHR2)", "T2 sequence (whole entry)": "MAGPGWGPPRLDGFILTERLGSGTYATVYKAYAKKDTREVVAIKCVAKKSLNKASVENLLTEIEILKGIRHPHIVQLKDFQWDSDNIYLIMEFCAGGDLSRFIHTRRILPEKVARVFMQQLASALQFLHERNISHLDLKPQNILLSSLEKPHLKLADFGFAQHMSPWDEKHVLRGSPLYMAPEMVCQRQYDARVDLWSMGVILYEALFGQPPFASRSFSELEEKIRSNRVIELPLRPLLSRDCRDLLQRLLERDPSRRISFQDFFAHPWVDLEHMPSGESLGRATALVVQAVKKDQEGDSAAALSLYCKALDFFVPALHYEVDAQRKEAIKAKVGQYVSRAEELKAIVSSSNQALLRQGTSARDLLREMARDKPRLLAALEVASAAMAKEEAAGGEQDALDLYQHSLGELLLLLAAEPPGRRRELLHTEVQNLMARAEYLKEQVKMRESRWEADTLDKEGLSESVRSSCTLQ", "assay": "Selectivity interaction (KinomeScan (DiscoverX)) EUB0000229b ULK3", "details": "at 10 µM"}, "[4]": {"biological_target": "Serine/threonine-protein kinase NIM1 (Homo sapiens, UniProt Q8IY84)", "sequence (Q8IY84 whole entry)": "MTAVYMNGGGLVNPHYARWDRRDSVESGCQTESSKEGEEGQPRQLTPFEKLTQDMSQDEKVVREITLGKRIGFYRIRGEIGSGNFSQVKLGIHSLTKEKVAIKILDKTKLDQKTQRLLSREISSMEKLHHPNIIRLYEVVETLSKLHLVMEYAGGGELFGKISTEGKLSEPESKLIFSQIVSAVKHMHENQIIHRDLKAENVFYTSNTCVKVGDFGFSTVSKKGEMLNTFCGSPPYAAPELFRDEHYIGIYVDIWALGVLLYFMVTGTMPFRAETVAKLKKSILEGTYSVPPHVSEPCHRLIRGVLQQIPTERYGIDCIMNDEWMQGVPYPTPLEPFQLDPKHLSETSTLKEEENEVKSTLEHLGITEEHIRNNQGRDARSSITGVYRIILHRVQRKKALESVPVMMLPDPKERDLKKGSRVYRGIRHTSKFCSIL", "details": "at 10 µM"}, "[5]": {"biological_target": "T3, Mitogen-activated protein kinase 15 (Homo sapiens) (UniProt Q8TD08)", "T3 sequence (whole entry)": "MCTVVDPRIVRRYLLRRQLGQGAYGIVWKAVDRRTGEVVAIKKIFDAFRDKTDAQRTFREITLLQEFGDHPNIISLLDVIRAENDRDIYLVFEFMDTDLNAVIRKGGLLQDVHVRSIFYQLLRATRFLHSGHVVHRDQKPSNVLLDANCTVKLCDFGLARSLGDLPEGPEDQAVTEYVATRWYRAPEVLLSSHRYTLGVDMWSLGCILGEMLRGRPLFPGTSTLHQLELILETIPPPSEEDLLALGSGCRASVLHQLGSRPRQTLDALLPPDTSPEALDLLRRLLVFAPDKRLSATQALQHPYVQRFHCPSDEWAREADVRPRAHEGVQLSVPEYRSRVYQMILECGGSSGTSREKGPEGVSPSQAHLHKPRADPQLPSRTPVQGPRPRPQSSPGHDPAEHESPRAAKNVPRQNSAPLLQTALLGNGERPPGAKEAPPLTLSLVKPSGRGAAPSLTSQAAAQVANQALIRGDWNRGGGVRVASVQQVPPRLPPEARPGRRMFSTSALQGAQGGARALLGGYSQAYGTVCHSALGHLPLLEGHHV", "assay": "Selectivity interaction (KinomeScan (DiscoverX)) EUB0000618a MAPK15", "details": "at 10 µM"}, "[6]": {"biological_target": "T4, Megakaryocyte-associated tyrosine-protein kinase (Homo sapiens) (UniProt P42679)", "T4 sequence (whole entry)": "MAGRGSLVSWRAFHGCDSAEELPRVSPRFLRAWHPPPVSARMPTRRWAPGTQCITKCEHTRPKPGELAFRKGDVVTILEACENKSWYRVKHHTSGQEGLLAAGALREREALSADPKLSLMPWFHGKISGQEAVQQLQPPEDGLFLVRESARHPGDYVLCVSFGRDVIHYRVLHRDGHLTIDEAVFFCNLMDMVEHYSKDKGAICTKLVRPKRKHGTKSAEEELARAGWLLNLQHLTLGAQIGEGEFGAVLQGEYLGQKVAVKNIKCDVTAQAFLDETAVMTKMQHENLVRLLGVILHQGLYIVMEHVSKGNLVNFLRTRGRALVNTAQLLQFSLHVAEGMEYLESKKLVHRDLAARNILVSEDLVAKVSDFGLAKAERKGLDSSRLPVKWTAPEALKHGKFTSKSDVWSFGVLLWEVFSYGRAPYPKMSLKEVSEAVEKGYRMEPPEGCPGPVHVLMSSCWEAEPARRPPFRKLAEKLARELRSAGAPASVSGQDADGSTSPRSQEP", "assay": "Selectivity interaction (KinomeScan (DiscoverX)) EUB0000618a MATK", "details": "at 10 µM"}, "[7]": {"biological_target": "T5, Dual specificity mitogen-activated protein kinase kinase 4 (Homo sapiens) (UniProt P45985)", "T5 sequence (whole entry)": "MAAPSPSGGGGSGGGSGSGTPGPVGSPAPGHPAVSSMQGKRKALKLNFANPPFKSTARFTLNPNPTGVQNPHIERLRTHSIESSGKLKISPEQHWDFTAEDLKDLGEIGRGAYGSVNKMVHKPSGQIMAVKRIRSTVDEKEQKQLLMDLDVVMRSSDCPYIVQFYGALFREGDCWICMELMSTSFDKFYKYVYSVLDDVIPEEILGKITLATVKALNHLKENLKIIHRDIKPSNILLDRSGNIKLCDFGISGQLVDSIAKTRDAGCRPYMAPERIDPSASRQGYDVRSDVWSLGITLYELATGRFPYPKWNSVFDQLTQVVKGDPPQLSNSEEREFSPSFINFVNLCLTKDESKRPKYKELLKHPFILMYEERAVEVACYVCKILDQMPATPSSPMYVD", "assay": "Selectivity interaction (KinomeScan (DiscoverX)) EUB0000618a MAP2K4", "details": "at 10 µM"}}, "data": [{"molecule": "COc1cc(Nc2nc(C)cc(-c3cnn4nc(OC)ccc34)n2)cc(C(F)(F)F)c1", "values": [{"measurement": "% of control", "setting": "[1]", "value": 86, "unit": "%"}]}, {"molecule": "Nc1cnc(N2CCc3cc(S(=O)(=O)Nc4c(F)cc(Cl)cc4F)cc(N4CCCC4=O)c32)nc1", "note": "[TP-020n]", "values": [{"measurement": "% of control", "setting": "[2]", "value": 100, "unit": "%"}]}, {"molecule": "COc1cc(N(C)c2ccnc3ccc(C(F)(F)F)cc23)cc(OC)c1OC", "values": [{"measurement": "% binding", "setting": "[3]", "value": 75, "unit": "%"}]}, {"molecule": "Cc1cc([C@@H](C)Nc2ccccc2C(=O)O)c2nc(N3CCOCC3)cc(=O)n2c1", "note": "[AZD-6482]", "values": [{"measurement": "% of control", "setting": "[4]", "value": 100, "unit": "%"}]}, {"molecule": "O[C@H]1CC[C@H](Nc2ncc3nc(Nc4c(F)cc(F)cc4F)n([C@H]4CCOC4)c3n2)CC1", "values": [{"measurement": "% of control", "setting": "[5]", "value": 100, "unit": "%"}, {"measurement": "% of control", "setting": "[6]", "value": 95, "unit": "%"}, {"measurement": "% of control", "setting": "[7]", "value": 27, "unit": "%"}]}]}
